How the values were obtained:
[1] = test system: Human umbilical vein endothelial cells; assay: Cytotoxicity by propidium iodide exclusion, HUVEC; assay type: cell-based; details: HUVEC pretreated 18-20 h
[2] = biological target: CDC42 (Homo sapiens, UniProt P60953); assay: BODIPY-FL-GTP binding to CDC42
[3] = test system: Staphylococcus aureus; assay: Assessment of bactericidal activity (HUVEC media); assay type: cell-based; details: 1.2 × 10^8 CFU S. aureus, 1 h in HUVEC media; 10 μM
Procedure: FIG. 6B illustrates that neither cytotoxicity nor bactericidal activity is detected. Cultures of Staphylococcus aureus that had been incubated with the vehicle control DMSO or with ML 141 (1 hour, 37° C., 225 rpm) were serially diluted, plated onto blood agar, and incubated (18 hours, 37° C.). Colonies were enumerated and colony forming units (CFU)/ml determined. CFU/ml were not different amongst the groups (p>0.05 by t-test; n=2/treatment). […]

[4] = test system: Staphylococcus aureus; assay: Staphylococcus aureus host cell invasion assay in HUVEC, flow cytometry; assay type: cell-based; details: HUVEC; for inhibition of invasion compared with ML 141 (Table 1): 10 μM, flow cytometry; for activity at 10 µM: Staphylococcus aureus, 1 h, read-out: Internalized bacteria (% control ± SEM), Structural analog
Procedure: In one embodiment, human umbilical vein endothelial cells (HUVEC, Life Technologies) are cultured in M200 medium supplemented with LSGS. RAW 264.7 cells (American Type Culture Collection, ATCC, Manassas, Va.) are cultured in RPMI supplemented with 10% FBS and L-glutamine. All cell types are maintained at 5% CO2, 37° C., in 75 cm^2 vented cap flasks (Thermo-Fisher). For assays, cultured cells are plated at 1×10^5 cells/ml in 35 mm culture dishes coated with Attachment Factor. The next day, cells are pretreated in culture medium containing the vehicle control or ML 141. For compound delivery, ML 141 first is suspended into DMSO or into PEG at a concentration of 5 mM. The 5 mM solution is diluted to 1 mM in the solvent and then diluted to the final concentration for each experiment in either serum-containing or serum-free medium. For vehicle control treatment, the same volume of PEG or DMSO as that of ML 141 is added to medium. The following day, the invasion assay is performed. For the shorter duration experiments, compound is added on the same day as the invasion assay, 1 hour prior to bacteria.
In another embodiment, HUVEC (Millipore, Billerica, Mass.) are cultured in EndoGRO LS Complete Media (Millipore) and are maintained at 5% CO2, 37° C., in 75 cm^2 vented cap flasks (Thermo-Fisher). For the invasion assay, cultured cells are plated at 1×10^4 cells/ml in 96-well culture dishes coated with Attachment Factor. The next day, cells are pretreated in culture medium containing the vehicle control, ML 141, or ML 141 structural analog. For compound delivery, ML 141 and structural analogs first are suspended into PEG at a concentration of 5 mM. The 5 mM solution is diluted to 1 mM in the solvent and then is diluted to the final concentration for each experiment in serum containing medium. For vehicle control treatment, the same volume of PEG as that of ML 141 or of ML 141 structural analog is added to the medium. The following day, the invasion assay is performed. Bacteria are added directly to medium containing vehicle control, ML 141, or the ML 141 structural analog.
Two days prior to the assay, TSB is inoculated with S. aureus (American Type Culture Collection #29213) and incubated overnight (225 rpm, 37° C.). Bacteria are subcultured the next day into fresh TSB. On the day of the assay, bacteria are pelleted (10000×g, 37° C., 3 min), are washed in saline, are pelleted as above, are resuspended in saline, then fluorescently labeled by incubation with rabbit anti-mouse IgG Alexa Fluor 488 (final concentration 8 μg/ml, RT, 20 min). Protein A, a S. aureus cell surface protein, avidly binds IgG thereby labeling the bacteria. Labeled bacteria are washed twice as above and are resuspended to 3×10^8 CFU/ml in saline. Host cells are incubated with the bacteria for 1 hour (1.2×10^8 CFU/ml for same-day recovery, 5×10^6 for recovery after 48 hours, 1.4×10^7 CFU/ml; 5% CO2, 37° C.). Following infection, extracellular bacteria are removed by extensive washes with PBS and incubation of the host cells with antimicrobials that have limited mammalian membrane permeability (lysostaphin, 20 μg/ml and gentamicin, 50 μg/ml; 45 min for same-day recovery studies, 48 hours for 2-day recovery studies; 5% CO2, 37° C.). To detect the level of infection using flow cytometry, cells that have been infected with fluorescently-labeled bacteria are washed extensively with PBS, lifted from 96-well plate by incubation with trypsin, washed extensively in FACS buffer (2% BSA/0.1% sodium azide/PBS), fixed (FACS buffer containing 0.74% formaldehyde), and are counted using an Accuri flow cytometer (BD, Franklin Lakes, N.J.). They are also lifted from culture dishes using cell scrapers, pelleted, fixed (1% BSA/0.74% formaldehyde/PBS), and are counted using an Accuri flow cytometer. For enumeration of the infecting bacteria, intracellular bacteria are released from host cells using 1% saponin/PBS (20 min, 5% CO2, 37° C.) and serial dilutions are plated on TSA (16 hours, 37° C.). […]

[5] = test system: actin stress fibers; assay: Actin stress fiber depolymerization in HUVEC during S. aureus infection; assay type: cell-based, human; details: 18-20 h pretreatment, S. aureus 1 h
Procedure: (§1) FIG. 8A is an image depicting ML 141 limiting actin stress fiber depolymerization during infection. Human umbilical vein endothelial cells (HUVEC) were incubated with ML 141 or with the vehicle control polyethylene glycol (PEG) 18-20 h prior to infection with Staphylococcus aureus (1 h). Actin was detected using Alexa Fluor 488 phalloidin. Arrows indicate intact actin stress fibers. Arrowhead indicates cell lacking actin stress fibers. 100 cells/treatment were evaluated from randomly selected fields. Data are presented as the % of cells in which actin stress fibers were not detected. Scale bar is 50 μm.
as §1, with “8B” for “8A”, “RSM 06” for “ML 141”, “200” for “Arrows indicate intact actin stress fibers. Arrowhead indicates cell lacking actin stress fibers. 100”
as §1, with “8C” for “8A”, “RSM 16” for “ML 141”, “200” for “Arrows indicate intact actin stress fibers. Arrowhead indicates cell lacking actin stress fibers. 100”
HUVEC are plated at 1×10^5 cells/ml into 35 mm glass-bottom dishes (MatTek, Ashland, Mass.) are coated with Attachment Factor, are pretreated, and are infected (1.2×10^8 CFU) as described above. […] Alexa 488 is excited by the 488 nanommeter Ar laser line and is detected using a 505-530 nanometer bandpass filter. […] Maximum pixel projections from the Z-stacks are generated and are analyzed for actin morphology.

Sequence of CDC42 (P60953 whole entry): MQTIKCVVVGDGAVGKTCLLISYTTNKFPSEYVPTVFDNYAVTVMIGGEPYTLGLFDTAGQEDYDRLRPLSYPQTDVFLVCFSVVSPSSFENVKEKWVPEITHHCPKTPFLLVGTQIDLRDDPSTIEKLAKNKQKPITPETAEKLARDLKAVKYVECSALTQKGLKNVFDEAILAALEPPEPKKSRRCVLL

Row | SMILES | Mean fluorescence intensity (×10^4 ± SEM), Compound (10 μM) [1] | IC50 [2] | CFU (×10^8 ± SEM), Compound (10 μM) [3] | inhibition of invasion compared with ML 141 (Table 1) [4] | activity at 10 µM [4] | depolymerization of actin stress fibers during infection [5]
1 | COc1ccc(C2=NN(c3ccc(S(N)(=O)=O)cc3)C(c3ccc4c(c3)OCO4)C2)cc1 (stereo not drawn) [RSM 06] | 2.8 ± 0.1 ×10^4 | 10.1 µM | 4.9 ± 1.6 ×10^8 CFU | inhibited invasion more than ML 141 | 23 ± 1% | limited actin depolymerization
2 | COc1ccc(C2=NN(c3ccc(S(N)(=O)=O)cc3)C(c3ccc(OC)c(OC)c3)C2)cc1 (stereo not drawn) [RSM 16] | 1.4 ± 0.2 ×10^4 | 3.7 µM | 8.9 ± 1.9 ×10^8 CFU | inhibited invasion more than ML 141 | 63 ± 4% | limited actin depolymerization

Reference: patent US10183032B2, “Methods for treating bacterial infection” (Ball State Innovation Corporation, priority 2012, dated 2019)
